Data taken from patent US4950686A, “Anti-mycoplasma agent” (Shionogi & Co., Ltd., priority 1986, dated 1990).

Test system: Mycoplasma gallisepticum S6 (standard strain)
Test: Mycoplasma gallisepticum air-sac infection method in chicken, strain S6
Format: in vivo, Mycoplasma gallisepticum; SPF chicken (white leghorn)
Outline: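 Right air sac of 9-day-old SPF white leghorn chickens (water/feed withheld 1 day) inoculated with 24-48 h culture diluted ~100×; compound given once orally by cannula right after infection. At day 5, air-sac lesions scored 0-3 (index = right + 2×left), and organisms isolated from both air sacs and trachea.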

[1] = 50 mg/kg × once oral, 5 mg/ml sol. b, inoculum 6.3 × 10^4
[2] = 100 mg/kg × once oral, 10 mg/ml sol. b, inoculum 1.2 × 10^6
[3] = 100 mg/kg × once oral, 10 mg/ml sol. b, inoculum 6.3 × 10^4
[4] = 200 mg/kg × once oral, 20 mg/ml sol. a, inoculum 3.1 × 10^5
[5] = 200 mg/kg × once oral, 20 mg/ml sol. c, inoculum 3.1 × 10^5

What does the source list for `O=c1cccccc1O` [Tropolone, tropolone]?
Change of air-sac, left: + (chickens) [1]: 0; Change of air-sac, left: ++ (chickens) [1]: 0; Change of air-sac, left: +++ (chickens) [1]: 0; Change of air-sac, left: - (chickens) [1]: 5; Change of air-sac, right: + (chickens) [1]: 2; Change of air-sac, right: ++ (chickens) [1]: 0; Change of air-sac, right: +++ (chickens) [1]: 0; Change of air-sac, right: - (chickens) [1]: 3; Isolation, L (left air-sac) [1]: 0; Isolation, R (right air-sac) [1]: 2; Mycoplasma Isolated Chickens [1]: 2; Index of Disease (50 mg/kg × once oral, 5 mg/ml sol. b, inoculum 6.3 × 10^4, range 0-9.0): 0.4; Index of Isolation (50 mg/kg × once oral, 5 mg/ml sol. b, inoculum 6.3 × 10^4, trachea ND, range 0-6.0): 0.4; Change of air-sac, left: + (chickens) [2]: 0; Change of air-sac, left: ++ (chickens) [2]: 0; Change of air-sac, left: +++ (chickens) [2]: 0; Change of air-sac, left: - (chickens) [2]: 8; Change of air-sac, right: + (chickens) [2]: 0; Change of air-sac, right: ++ (chickens) [2]: 0; Change of air-sac, right: +++ (chickens) [2]: 0; Change of air-sac, right: - (chickens) [2]: 8; Isolation, L (left air-sac) [2]: 0; Isolation, R (right air-sac) [2]: 0; Isolation, T (trachea) [2]: 0; Mycoplasma Isolated Chickens [2]: 0; Index of Isolation (100 mg/kg × once oral, 10 mg/ml sol. b, inoculum 1.2 × 10^6, range 0-6.0): 0; Index of Disease (100 mg/kg × once oral, 10 mg/ml sol. b, inoculum 1.2 × 10^6, range 0-9.0): 0; Change of air-sac, left: + (chickens) [3]: 0; Change of air-sac, left: ++ (chickens) [3]: 0; Change of air-sac, left: +++ (chickens) [3]: 0; Change of air-sac, left: - (chickens) [3]: 5; Change of air-sac, right: + (chickens) [3]: 1; Change of air-sac, right: ++ (chickens) [3]: 0; Change of air-sac, right: +++ (chickens) [3]: 0; Change of air-sac, right: - (chickens) [3]: 4; Isolation, L (left air-sac) [3]: 0; Isolation, R (right air-sac) [3]: 0; Mycoplasma Isolated Chickens [3]: 0; Index of Disease (100 mg/kg × once oral, 10 mg/ml sol. b, inoculum 6.3 × 10^4, range 0-9.0): 0.2; Index of Isolation (100 mg/kg × once oral, 10 mg/ml sol. b, inoculum 6.3 × 10^4, trachea ND, range 0-6.0): 0; Change of air-sac, left: + (chickens) [4]: 0; Change of air-sac, left: ++ (chickens) [4]: 0; Change of air-sac, left: +++ (chickens) [4]: 0; Change of air-sac, left: - (chickens) [4]: 5; Change of air-sac, right: + (chickens) [4]: 0; Change of air-sac, right: ++ (chickens) [4]: 0; Change of air-sac, right: +++ (chickens) [4]: 0; Change of air-sac, right: - (chickens) [4]: 5; Isolation, L (left air-sac) [4]: 0; Isolation, R (right air-sac) [4]: 1; Isolation, T (trachea) [4]: 0; Mycoplasma Isolated Chickens [4]: 1; Index of Isolation (200 mg/kg × once oral, 20 mg/ml sol. a, inoculum 3.1 × 10^5, range 0-6.0): 0.2; Index of Disease (200 mg/kg × once oral, 20 mg/ml sol. a, inoculum 3.1 × 10^5, range 0-9.0): 0; Change of air-sac, left: + (chickens) [5]: 0; Change of air-sac, left: ++ (chickens) [5]: 0; Change of air-sac, left: +++ (chickens) [5]: 0; Change of air-sac, left: - (chickens) [5]: 5; Change of air-sac, right: + (chickens) [5]: 0; Change of air-sac, right: ++ (chickens) [5]: 0; Change of air-sac, right: +++ (chickens) [5]: 0; Change of air-sac, right: - (chickens) [5]: 5; Isolation, L (left air-sac) [5]: 0; Isolation, R (right air-sac) [5]: 0; Isolation, T (trachea) [5]: 0; Mycoplasma Isolated Chickens [5]: 0; Index of Isolation (200 mg/kg × once oral, 20 mg/ml sol. c, inoculum 3.1 × 10^5, range 0-6.0): 0; Index of Disease (200 mg/kg × once oral, 20 mg/ml sol. c, inoculum 3.1 × 10^5, range 0-9.0): 0
